Test results reported in paper PMC6287543 (International Journal for Parasitology: Drugs and Drug …, 2018).
“And” between values parts separate entries of the source, which are not always exact repeats. Equal values may be shown once. “Also recorded” adds a separate entry of the source.

What was measured:
[1] = oral 60 mg/BID over 24 weeks; ref Kim et al., 2017; cited from earlier work
S. mansoni = experiment: Murine model of S. mansoni infection: worm burdens recovered by perfusion; assay type: in vivo, Schistosoma mansoni; details: mice; for reduction in female worm burden / reduction in male worm burden: 42 dpi

Row | SMILES | tolerability [1] | efficacy against 21-day-old juvenile parasites (S. mansoni; 100 mg/kg PO QDx4 from 21 dpi, 100 mg/kg) | reduction in female worm burden (S. mansoni; single oral 200 mg/kg) [%] | reduction in male worm burden (S. mansoni; single oral 200 mg/kg) [%] | reduction in female worm burden (S. mansoni; single oral 400 mg/kg) [%] | reduction in male worm burden (S. mansoni; single oral 400 mg/kg, 400 mg/kg) | worm kill, juvenile 21 day-old parasites (S. mansoni; single oral doses)
1 | Cc1c(-c2cnccn2)ssc1=S [Oltipraz] | well-tolerated |  |  |  |  |  | 
2 | O=C(C1CCCCC1)N1CC(=O)N2CCc3ccccc3C2C1 (stereo not shown) [PZQ, praziquantel] |  | ineffective; also recorded: essentially inactive | 97 | 78 | 100 | 100% and 97% | zero kill
